Entries after “also recorded” stand apart in the source; their conditions may differ.
What was measured:
[1] = system: wild-type Drosophila; set-up: species or system Drosophila melanogaster; details: in vivo
Method: (§1) Into each well is pipetted 50-400 μl of either standard (control) or high glucose (experimental) Drosophila growth medium. A range of 50-400 μl is a balance between (1) providing sufficient food so as not to place undue feeding stress on the developing flies and (2) providing sufficient air space for the third larval instars to find sufficient wall space to pupate. Any one of several standard Drosophila growth medium recipes as known in the art of breeding Drosophila for research can be used. A known recipe for a standard growth medium includes, for example, water: 1 liter, cornmeal: 61 grams, yeast: 32 grams, agar: 9.3 grams, glucose: 129 grams (or molasses: 67 grams), methyl p-hydrobenzoate: 2.7 grams, and propionic acid: 0.05 liters. A high glucose growth medium is, for example, such a standard Drosophila growth medium supplemented with an additional 1 mole glucose. For example, to prepare a high glucose growth medium, an additional 180 grams of glucose is added to the recipe for standard growth medium as just described. Another embodiment, for example, of a standard growth medium is that prepared as follows: 1 gram agar, 8 grams brewers yeast, 2 grams yeast extract, 2 grams peptone, 3 grams sucrose, 6 grams glucose, 0.05 grams MgSO4×6H20, 0.05 grams CaCl2×2H20, 600 microliters propionic acid, 1 milliliter 10% p-Hydroxy-benzoic acid methyl ester in 95% ethanol, brought to 100 milliliters with water. A high glucose version of this medium is made, for example, by combining 75 milliliters of this medium with 25 milliliters of a 4 molar glucose solution in water.
Alternatively, the experimental growth medium is any growth medium containing an excess amount of a sugar or sugars selected from hexose sugars such as fructose, sorbitol, galactose and glucosamine, and from complex sugars such as sucrose, lactose or maltose.
The addition of 1 molar (1 M) glucose to the Drosophila growth media delayed pupariation, which reached significant levels at day 10 and high levels at day 11.
The developmental arrest can be screened as described in the Examples, infra. Glucose, for example, induces readily observable delays in pupariation as determined by the timing of significant eclosion, and peak eclosion. For example, control Drosophila embryos show significant eclosion beginning at day 8, while Drosophila embryos exposed to high glucose growth medium show significant eclosion beginning at day 11 (1 molar glucose). Similarly, peak eclosion is delayed, for example, from day 10 in controls, to day 12 (1 molar glucose). Thus, candidate compounds are screened by observing changes to the delay in significant eclosion and peak eclosion, as compared to the developmental delay induced by high glucose.
Accordingly, the ability of the hexose sugars fructose, sorbitol, galactose and glucosamine was tested by adding amounts of each sugar to the standard Drosophila growth medium. Fructose and sorbitol induced a 48-hour developmental delay at concentrations similar to those at which glucose induced developmental delay (data not shown).

[2] = system: wild-type Drosophila; test: Drosophila high throughput screen: effect of compound on glucose-mediated delay in pupariation; type: in vivo, Drosophila melanogaster; details: for significant levels of pupariation / high levels of pupariation: 1 M glucose, FIG. 2; for effect on glucose-mediated developmental delay / delay in pupariation: high glucose (1 M glucose in growth media)
Method: Accordingly, methods and related articles of composition for high throughput screening assays involve the preparation of microtiter plates each with multiple wells, wherein each well initially contains one or more wild type Drosophila embryos and an amount of a high glucose Drosophila growth medium. The embryos develop while feeding on the high glucose growth medium. The precise age of the embryos at the time they are plated matters less than the fact that they are all about the same age, to permit accurate evaluation of the possible effects of the candidate compound on larval development.
To prepare the microtiter plates, for example, 96-well microtiter plates are used, such as those commonly commercially available and typically used for various laboratory assay techniques, including other high throughput drug assay techniques. A suitable example is a Falcon #3912 flexible 96-well plate. However, other multiple-well microtiter plates can be used.
as §1
A candidate compound, or cocktail of more than one compound, that has been selected for screening is dissolved in EtOH or prepared in DMSO/Aqueous solution. In an exemplary embodiment, EtOH is used. Although DMSO can be used, it can be toxic if it reaches final concentrations of more than 0.3% of the growth medium. The compound in solution is added and allowed to diffuse through the growth medium for an initial period of about 16-24 hours. Wild type Drosophila embryos are collected en masse and, after the initial period of diffusion of the candidate compound through the growth medium, sorted several to a well. In an exemplary embodiment, five to twenty embryos are sorted to each well. However, the number of embryos in each well can easily vary, provided that no more embryos than will flourish in the well are used. The number of embryos per well will also be influenced by the need to obtain a sufficient number of data points to make the test meaningful.
Once the Drosophila embryos are placed into each well on the growth medium, they hatch out and begin feeding after a second period of about 24 hours, bringing the final amount of diffusion time for the subject compound to about 40-48 hours. A period of about 24-48 hours is sufficient for full diffusion of most compounds. […] Finally, each well is sealed with a sealing film such as “Aeraseal Sealing Film” (available from Sigma-Aldrich, St. Louis, Mo.; Sigma #A-9224). […]

[3] = 0.375 mg/ml of food, 1 molar glucose, FIG. 3
[4] = 0.75 mg/ml of food, 1 molar glucose, FIG. 3

Compound: O=C(CO)[C@@H](O)[C@H](O)[C@H](O)CO [fructose]
- developmental delay induced ([1]; Drosophila melanogaster): 48 h

Compound: O=C[C@H](O)[C@@H](O)[C@@H](O)[C@H](O)CO [galactose]
- concentration at which toxicity is demonstrated ([1]; Drosophila melanogaster): 0.3 M

Compound: N[C@H]1C(O)O[C@H](CO)[C@@H](O)[C@@H]1O (stereo partly shown) [glucosamine]
- concentration inducing a developmental delay (as low as) ([1]; Drosophila melanogaster): 3000 µM
- developmental delay with progressively higher levels [1]: progressively longer developmental delays
- larval emergence [1]: most larvae failed to emerge

Compound: COc1ccc(Cl)cc1C(=O)NCCc1ccc(S(=O)(=O)NC(=O)NC2CCCCC2)cc1 [glyburide]
- significant levels of pupariation ([2]; 0.25 mg per ml of growth media, no-drug 1 M glucose control approximately day 12): 8 days
- high levels of pupariation ([2]; 0.25 mg per ml of growth media, no-drug 1 M glucose control day 13-14): ≤ 10 days
- high levels of pupariation ([2]; 1 mg per ml of growth media): 11 days
- significant levels of pupariation ([2]; 1 mg per ml of growth media): 11 days
- effect on glucose-mediated developmental delay / delay in pupariation [2]: demonstrated an ability to ameliorate glucose-mediated developmental delay; also recorded: reduced glucose-mediated delay in pupariation

Compound: CC(C)[C@H]1CC[C@H](C(=O)N[C@H](Cc2ccccc2)C(=O)O)CC1 [nateglinide]
- effect on rate of development [2, 3]: partially restored the rate of development
- pupariation high rates beginning [2, 3]: 9 days
- effect on rate of development [2, 4]: intermediate result
- pupariation high levels beginning [2, 4]: 9 days
- effect on glucose-mediated developmental delay / delay in pupariation [2]: demonstrated an ability to ameliorate glucose-mediated developmental delay

Compound: OC[C@@H](O)[C@@H](O)[C@H](O)[C@@H](O)CO [sorbitol]
- developmental delay induced ([1]; Drosophila melanogaster): 48 h
